Test results reported in patent US5451518A, “Purified human ceramide-activated protein kinase” (Sloan-Kettering Institute for Cancer Research, priority 1992, dated 1995).
Entries after “also recorded” stand apart in the source; their conditions may differ.

Legend:
[1] = tested on: sphingomyelin (EL-4 nuclei-free supernate); experiment: Sphingomyelin levels in EL-4 cell-free system; assay type: biochemical, murine; details: IL-1β, n=10, p<0.005 vs. control
Description: (§1) Thereafter, supernates (300 μg incubation^-1 in 25 μl ) were added to a reaction mixture (total volume 250 μl ) as described in FIG. 14. For studies measuring lipid levels, incubations were stopped by extraction of lipids into an organic phase and resolved as described in FIGS. 12A, 12B and 13. For studies measuring kinase activity, incubations contained EGFR peptide and [^32 P]ATP, and phosphorylated peptide was quantified as described in FIG. 14. Background activity was subtracted from each point. Values (mean) represent data from two experiments for sphingomyelin performed in triplicate, three experiments for ceramide performed in triplicate, and five experiments for ceramide-activated protein kinase activity performed in duplicate.
(§2) Early kinetics of activation of a potential signaling system provide some support that the pathway might be involved in the signaling process. However, signal transduction pathways are highly regulated and often interrelated (70). […] To provide additional support for tight coupling of the sphingomyelin pathway to activation of the IL-1β receptor, studies were performed with subcellular fractions derived from EL-4 cells. […] These effects were quantitatively similar to those determined in the intact cells.

[2] = tested on: human natural killer-like cell line, YT; experiment: Ceramide generation in YT cells; assay type: cell-based; details: preliminary studies
[3] = tested on: ceramide-activated protein kinase
Description: Homogenates were centrifuged at 500×g for 5 minutes to remove nuclei and at 200,000×g for 30 minutes to prepare microsomal membranes. Membranes were resuspended into homogenizing buffer (2.2 μg membrane protein μl^-1). For assay of kinase activity, the reaction mixture contained 20 μl of microsomal membrane, 40 μl EGFR peptide (4 mg ml^-1 in 25 mM Hepes, pH 7.4) and 100 μl buffer (50 mM HEPES, pH 7.4, 20 mM MgCl2) (40). Phosphorylation was initiated at 22° C. by addition of 40 μl [γ-^32 P] ATP (100 μM final concentration) and terminated at the indicated times by addition of 40 μl of 0.5M ATP in 90% formic acid. Phosphorylated peptide was eluted from a C18 Sep pak cartridge (Millipore), lyophilized, and resolved by C18 reverse phase HPLC using a linear gradient of acetonitrile. […] All assays were performed under conditions determined as linear for time and enzyme concentration. Enzyme activity was determined from the percent conversion of substrate to product and the specific radioactivity of [γ-^32 P] ATP. […] Values (mean ± range) represent duplicate determinations from two experiments.
Activity was measured by the transfer of ^32 P from the γ-position of ATP to EGFR peptide (AA 663-681 of the EGFR). The effect of IL-1β on kinase activity was determined using microsomal membranes derived from cells stimulated with IL-1β.

protein kinase C = experiment: Protein kinase C activity by phosphorylation of lysine-rich histone in EL-4 cells; assay type: cell-based, murine; details: membrane and cytosolic fractions
EL-4 cells [4] = experiment: Ceramide levels in intact EL-4 cells; assay type: cell-based, murine
Description: (§3) Time course (FIG. 12A) and dose response (FIG. 12B). Cells were grown to growth arrest (1-1.5×10^6 cells ml^-1) in DME/Ham's F12 medium (1:1, v/v) containing 10% horse serum and for 48 hours [^3 H]choline (1 μCi ml^-1). On the day of an experiment, cells were resuspended back into the same medium at 10×10^6 cells ml^-1 and stimulated with 40 ng ml^-1 IL-1β for the indicated times (FIG. 12A) or for 30 minutes with increasing concentrations of IL-1β (FIG. 12B). Human IL-1β may be obtained using methods well knownto those skilled in the art. Reactions were terminated with CHCl3 :CH3 OH:HCl (100:100:1) containing 10 mM EDTA (82). Lipids in the organic phase extract were dried under N2 and subjected to mild alkaline hydrolysis (0.1M methanolic KOH for 1 hour at 37° C.) to remove glycerophospholipids. Spingomyelin was resolved by thin-layer chromatography (TLC) using CHCl3 :CH3 OH:CH3 COOH:H2 O (60:30:8:5) as solvent, identified by iodine vapor staining, and quantified by liquid scintillation spectrometry. As previously reported, the use of [^3 H]choline as a measure of sphingomyelin content was validated by simultaneous phospholipid phosphorus measurements (62). Each value represents the mean ± SEM of triplicate determinations from four experiments in (FIG. 12A), and one representative of four similar studies performed in triplicate in (FIG. 12B).
Cells were stimulated as in FIGS. 12A and 12B with IL-1β (40 ng ml^-1) and ceramide contained within the organic phase extract quantified enzymatically using the E. coli diacylglycerol kinase reaction (57). Lipids were resolved by TLC using CHCl3 :CH3 OH:CH3 COOH (65/15/5) as solvent, autoradiographed and quantified by liquid scintillation spectrometry. Each value represents the mean ± SEM of triplicate determinations from 10 experiments.

EL-4 cells [5] = experiment: Phosphatidylcholine content in EL-4 cells; assay type: cell-based, murine; details: IL-1β
[6] = tested on: ceramide (EL-4 nuclei-free supernate); experiment: Ceramide levels in EL-4 cell-free system; assay type: biochemical, murine; details: IL-1β, n=6, p<0.005 vs. control
Description: as §1, §2

EL4 cells = details: 24 h
EL-4 cells [7] = experiment: Sphingomyelin levels in intact EL-4 cells; assay type: cell-based, murine
Description: as §3
The murine thymoma EL-4 cell line is a well-defined IL-1 responsive cell line that expresses functional IL-1 receptors (61, 62). Upon stimulation with IL-1, these cells up-regulate the IL-2 receptor and secrete IL-2 (62). Initial studies were designed to investigate the effects of IL-1β on cellular sphingomyelin content. Cells, grown in Dulbecco's Modified Eagle's (DME)/Ham's F-12 medium containing 10% horse serum and [^3 H]choline (1 μCi ml^-1), were resuspended back into the same medium at 10×10^6 cells ml^-1 and stimulated with IL-1β. IL-1β is commercially available.

[8] = tested on: ceramide-activated protein kinase; experiment: Ceramide-activated protein kinase activity in EL-4 cell-free system; assay type: biochemical, murine; details: IL-1β
Description: as §1, §2

[9] = tested on: proline-directed protein kinase activities other than ceramide-activated protein; experiment: Cytosolic kinase activity toward EGFR peptide in EL-4 cells; assay type: cell-based, murine

## IL-1β: Human IL-1β
[1]
  reduction in sphingomyelin content (in words): rapid reduction in sphingomyelin content; also recorded: detected at i minute
[2]
  generation of ceramide in YT cells: induces rapid generation of ceramide
[3]; 10 ng ml^-1, 2 minutes, from 5
  kinase activity after IL-1β: 11 pmol per minute per milligram (pmol min^-1 mg^-1)
[3]; IL-1β
  concentration for maximal effect, kinase activity: 10 ng/mL
  effective concentration, kinase activity: 0.03 ng/mL
  effective dose (ED50), kinase activity: ≈ 2 ng ml^-1
[3]; IL-1β 10 ng ml^-1
  time at which increase in kinase activity was detectable: 30 s
[3]; IL-1β 10 ng ml^-1, 2 minutes
  increase in kinase activity: 2.1 -fold of control
[3]; IL-1β 10 ng ml^-1, p<0.005
  time to maximal kinase activity: 2 min
Protein kinase C
  protein kinase C activity (in words): not enhanced in either membrane or cytosolic fractions
EL-4 cells [4]; EL-4, maximally effective concentrations (n=5), SMase 1×10^-3 U ml^-1
  ceramide response (in words): elevation in ceramide levels
EL-4 cells [4]; IL-1β, 2 minutes, from 360, p<0.005
  ceramide content: 403 pmol 10^6 cells^-1
EL-4 cells [4]; IL-1β, 15 minutes, from 360
  maximum ceramide content: 450 pmol 10^6 cells^-1
EL-4 cells [4]; IL-1β, n=4
  time at which increase in ceramide content was evident: ≤ 30 s
EL-4 cells [5]
  phosphatidylcholine content: unchanged
[6]
  increase in ceramide content (in words): quantitative increase in ceramide content; also recorded: detected at i minute
EL4 cells
  IL-2 secretion in combination with TPA (in words): stimulated secretion maximally
EL4 cells; Table I, TPA 20 ng ml^-1, mean ± range, nd = not detectable
  IL-2 secretion, ±TPA: 261 ± 2
EL-4 cells [7]; 40 ng ml^-1, 30 minutes, baseline 800±14, mean ± SEM, p<0.005
  sphingomyelin content after IL-1β: 648±16 pmol 10^6 cells^-1
EL-4 cells [7]; IL-1β 40 ng ml^-1
  time at which sphingomyelin reduction was detectable: ≤ 2 min
EL-4 cells [7]; IL-1β, 30 minutes
  concentration for maximal effect, sphingomyelin: 10 ng/mL
  effective concentration, sphingomyelin: 0.01 ng/mL
  effective dose (ED50), sphingomyelin hydrolysis: ≈ 2 ng ml^-1
EL-4 cells [7]; intact EL-4
  effect on sphingomyelin (in words): rapid reduction in sphingomyelin
[8]
  ceramide-activated protein kinase activity (in words): Ceramide-activated protein kinase activity also increased
[9]
  cytosolic kinase activity (in words): not enhanced
